According to the NIST ThermoML archive (doi:10.1016/j.fluid.2006.02.023):
Numbers after ± are expanded uncertainties.

Conditions: 303.15 K; 101.33 kPa; Liquid

Structure (SMILES)	mass density	speed of sound	viscosity
C1COCO1 [1,3-dioxolane]	1051.8 ± 1.2 kg/m3	1288.5 ± 2.6 m/s	0.5487 ± 0.03 mPa·s
CC(C)(C)O [2-methylpropan-2-ol]	775.1 ± 0.9 kg/m3	1078.8 ± 2.3 m/s	3.099 ± 0.14 mPa·s
CC(C)CCO [3-methylbutan-1-ol]	803.2 ± 0.9 kg/m3	1197 ± 2.5 m/s	3.111 ± 0.14 mPa·s
CCCCO [butan-1-ol]	802.1 ± 0.9 kg/m3	1196.6 ± 2.5 m/s	2.54 ± 0.11 mPa·s
CCC(C)O (centres undefined) [butan-2-ol]	799.2 ± 0.9 kg/m3	1168.9 ± 2.4 m/s	2.339 ± 0.11 mPa·s
CCO [ethanol]	784.4 ± 0.9 kg/m3	1144.3 ± 2.4 m/s	0.9675 ± 0.048 mPa·s
CO [methanol]	782.4 ± 0.9 kg/m3	1088.5 ± 2.3 m/s	0.5041 ± 0.028 mPa·s
CCCO [propan-1-ol]	795.8 ± 0.9 kg/m3	1182.6 ± 2.5 m/s	1.663 ± 0.078 mPa·s
CC(C)O [propan-2-ol]	777.3 ± 0.9 kg/m3	1126.6 ± 2.4 m/s	1.614 ± 0.076 mPa·s
O [water]	–	1505.2 ± 3 m/s	0.7975 ± 0.041 mPa·s
